Reference: patent publication US6962713B2, “Spot-on formulations for combating parasites” (Merial, priority 1919, dated 2005)

Assay: Plasma kinetics of ivermectin after spot-on application at different doses in combination with fipronil to dogs
Format: in vivo, dog
Description: This study was undertaken in order to assess the linearity of the percutaneous passage of ivermectin after spot-on application of different doses of ivermectin (100, 250, 500 and 1000 μg.kg^−1) in combination with fipronil (10 mg.kg^−1) to the dog. Furthermore, the possibility of control both heartworms and gastro-intestinal nematodes was evaluated.
Twelve male Beagle dogs (allocated into 4 groups of 3 animals were applied spot-on formulations combining ivermectin (0.1%, 0.25%, 0.5% and 1%) and fipronil (10%) at a dose rate of 0.1 ml.kg^−1 (i.e. 100, 250, 500 and 1000 μg.kg^−1 of ivermectin and 10 mg.kg^−1 of fipronil).
The formulations are as follows: […]
The formulations were applied at one spot onto the skin between the shoulder blades.
Blood samples were collected at intervals up to 56 days post treatment.
The determination of ivermectin was carried out by HPLC after an automated solid/liquid extraction, using fluorescence detection, with limit of quantification of 100 pg.ml^−1. The determination of fipronil and its sulfone metabolite (RM1602) was carried out by HPLC with UV detection, with a limit of quantification of 20 ng.ml^−1 for fipronil and RM1602. Both methods were validated in terms of specificity, extraction recovery, linearity, precision and accuracy.

N#Cc1nn(-c2c(Cl)cc(C(F)(F)F)cc2Cl)c(N)c1S(=O)(=O)C(F)(F)F [RM1602]
plasma concentrations compared with those usually observed in dogs treated at the same dose in previous studies (spot-on, fipronil 10 mg.kg^−1, dogs): significantly inferior

N#Cc1nn(-c2c(Cl)cc(C(F)(F)F)cc2Cl)c(N)c1[S+]([O-])C(F)(F)F (centres unmarked) [fipronil, 1-[2,6-Cl2-4-CF3 phenyl]-3-CN-4-[SO—CF3]-5-NH2 pyrazole]
plasma concentrations compared with those usually observed in dogs treated at the same dose in previous studies (dog, in vivo): significantly inferior
